In paper PMC9061853, “Luminescent bis(benzo[d]thiazolyl)quinoxaline: facile synthesis, nucleic acid and protein BSA interaction, live-cell imaging, biopharmaceutical research and cancer theranostic application” (RSC Advances, 2019):

Legend:
[1] = Stability in water, GSH and MTT condition by UV-vis spectroscopy; assay type: physicochemical
Description: The stability of compounds in water, GSH, and MTT condition (10% DMSO in PBS buffer) was studied. Water is a key factor because it widens the application in the biological field. […] The stability of complex 7e in water (pH 7.2) and GSH were investigated by UV-vis spectroscopy over a period of 20 h of time (Fig. S2a and b ^†).

[2] = test system: HeLa cells; assay: Live cell imaging / cellular uptake; assay type: cell-based, human; conditions: 50 μM in buffer, 4 h incubation, fluorescence microscopy
Description: Live cell imaging was performed in HeLa cell line. Compound 7e in 50 μM concentration in the buffer, were incubated with HeLa cells for 4 h. […] Significant potency, selectivity and cellular imaging property of compound 7e, mark it as a theranostic agent.
Fig. 2 Fluorescence and bright-field images of live cells: (a) fluorescent image of HeLa cell with compound 7e (50 μM in PBS buffer); incubation time 2 hours (b) bright-field image of HeLa cell with compound 7e (50 μM in PBS buffer); incubation time 2 hours. Scale bar 100 μm.
Then the 96 well plate was placed on the shaker for 10 min and subsequently the absorbance was recorded by the ELISA reader at λ = 490 nm. […] The data were expressed as the growth inhibition percentage calculated according to the equation: % growth inhibition = 100 − [(AD × 100)/AB], where AD is the absorbance measured for sample and AB is the absorbance measured for blank wells (cells with a […]
After incubating for 4 h at 37 °C, all the cells were washed with PBS buffer (pH 7.4). Then, the fluorescence images were recorded with an Olympus Fluorescence microscope with 480- […]
Interaction of complex (7e ) with DNA was recorded using UV-Visible absorption spectroscopy and ethidium bromide displacement assay by fluorescence spectroscopy. […]
The CT-DNA concentration in buffer were calculated by using the UV absorbance value at 260 nm and from the known molar […]

[3] = Metabolic stability in mouse liver microsomes; assay type: in vitro ADME; conditions: for % Metabolism in 30 min: 0.5 μM, 0.5 mg ml^−1 protein, NADPH, 37 °C; for half-life at 0.5 μM: mouse, liver microsomes
Description: (§1) The in vitro metabolic rate of 7g was determined in liver microsomes and the intrinsic clearance (CLintr) was estimated. The study was conducted at 0.5 μM substrate concentration and microsomal protein concentration of 0.5 mg ml^−1. Metabolic stability study in the presence of microsomes and cofactor NADPH was performed at 37 °C, 60 rpm for 30 min time duration. NADPH free control incubation was performed simultaneously for 30 min to understand if there are any non-enzymatic metabolism related issues. […] Intrinsic clearance as given in Table 6, was calculated using eqn (8). ^†

[4] = Metabolic stability in human liver microsomes; assay type: in vitro ADME; conditions: for % Metabolism in 30 min: 0.5 μM, 0.5 mg ml^−1 protein, NADPH, 37 °C; for half-life at 0.5 μM: human, liver microsomes
Description: as §1

[5] = Buffer solubility (LC-MS/MS); assay type: physicochemical; conditions: aqueous buffer, kinetic from dmso stock; pH 7.4 buffer, 2 h incubation
Description: LC-MS/MS methods were developed for compound 7g to quantify the drug concentration and in vitro study (i.e. buffer solubility, buffer stability, metabolic stability, and permeability) in a systemic manner (Table 4). Chromatographic elution conditions were set with the use of 5 mM ammonium formate containing 0.1% formic acid and acetonitrile containing 0.1% formic acid with C8, Kromasil, and 4.6 × […] as a stationary phase (Fig. S5a and b ^†). […] For the data analysis, % accuracy of compound 7g was calculated and it was soluble up to 25 μM (Fig. 3, eqn (7) ^†).
The in vitro solubility and stability of 7g were evaluated in pH 7.4 buffer. The buffer solubility and stability studies were conducted at six different concentrations ranging from 3.13 to 100 μM. For the data analysis, % stability of compound 7g at 120 min was calculated with respect to 0 min time point samples and it was stable up to 2 hours in pH 7.4 buffers. Data analysis was performed through the eqn (8) ^† and was tabulated (Table 4). Compound 7g found to be stable up to 2 hours with % remaining of 71% in pH 7.4.

[6] = Caco-2 permeability study; assay type: in vitro ADME; conditions: human, Caco-2, 10 μM, N = 3
Description: (§2) Compound 7g permeation ability (i.e. permeability) was assessed through Caco-2 cell monolayer. Permeability study was planned in both directions from apical to basolateral (A to B) and basolateral to apical (B to A) side. A to B is for checking drug permeation characteristics from the intestine (site of absorption) to systemic circulation and B to A is for checking drug efflux back to the intestine.

[7] = test system: Caco-2 cell monolayer; assay: Caco-2 permeability study; assay type: in vitro ADME; conditions: 10 μM, A to B and B to A; samples below the lower limit of quantitation
Description: as §2

| CLint ([3]; MLM set 1) [μl per min per mg protein] | % Metabolism in 30 min ([3]; MLM set 1) [%] | CLint ([3]; MLM set 2) [μl per min per mg protein] | % Metabolism in 30 min ([3]; MLM set 2) [%] | half-life at 0.5 μM ([3]; MLM set 1) [min] | half-life at 0.5 μM ([3]; MLM set 2) [min] | CLint ([4]; HLM set 1) [μl per min per mg protein] | % Metabolism in 30 min ([4]; HLM set 1) [%] | CLint ([4]; HLM set 2) [μl per min per mg protein] | % Metabolism in 30 min ([4]; HLM set 2) [%] | half-life at 0.5 μM ([4]; HLM set 1) [min] | half-life at 0.5 μM ([4]; HLM set 2) [min] | solubility at 2 h [5] [µM] | recovery at 10 μM ([6]; A to B) [%] | recovery at 10 μM ([6]; B to A) [%] | permeability across Caco-2 cell monolayer [7] | Compound | stability in MTT condition ([1]; 10% DMSO in PBS buffer, 18 h) | stability in GSH ([1]; GSH, 20 h) | stability in water ([1]; water pH 7.2, 20 h) | fluorescence of drug-treated live cells (cellular uptake) [2] |
| --- | --- | --- | --- | --- | --- | --- | --- | --- | --- | --- | --- | --- | --- | --- | --- | --- | --- | --- | --- | --- |
|  |  |  |  |  |  |  |  |  |  |  |  |  |  |  |  | Clc1cc2nc(COc3ccccc3-c3nc4ccccc4s3)c(COc3ccccc3-c3nc4ccccc4s3)nc2cc1Cl [Compound 7e] | insignificant change of absorbance | no changes in absorbance | no changes in absorbance | significant red fluorescence |
| 13 | 12 | 28 | 37 | 110 | 49.1 | 28 | 35 | 25 | 38 | 49.3 | 55.9 | ≤ 25 | 101 | 96 | low permeability | COc1ccc2nc(COc3ccccc3-c3nc4ccccc4s3)c(COc3ccccc3-c3nc4ccccc4s3)nc2c1 [Compound 7g, 2,2'-((((6-methoxyquinoxaline-2,3-diyl)bis(methylene))bis(oxy))bis(2,1-phenylene))bis(benzo[d]thiazole)] |  |  |  |  |
